{"source": "ChEMBL document CHEMBL1134182", "about": "“Modified synthesis and antiangiogenic activity of linomide” (2001)", "key": {"[1]": {"tested_on": "Mus musculus", "assay": "In vivo effect of compound on VEGF-induced angiogenesis in blood volume of mice", "assay_type": "functional"}, "[2]": {"tested_on": "Mus musculus", "assay": "In vivo effect of compound on VEGF-induced angiogenesis in blood vessels of mice", "assay_type": "functional"}}, "data": [{"smiles": "CN(C(=O)c1c(O)c2ccccc2n(C)c1=O)c1ccccc1", "note": "[ROQUINIMEX]", "values": [{"measurement": "Blood volume", "setting": "[1]", "value": "<0.33", "unit": "HB g ml-1"}, {"measurement": "Activity", "setting": "[2]", "value": "<3.48", "unit": "%"}]}]}
